No end group written: not given here.
Tested on: mAbs H44/24, H44/58, H44/70, H44/78, 4BE12C10
Experiment: ELISA test for the peptide-on-phage mAb interaction
Type: binding, mouse
Conditions: peptide-on-phage coated at 5×10^11 particules/ml; positives tested a second time
Method: To assess the binding of the mAbs to the numerous peptides-on-phage, all clones have been produced independently using the following protocol.
A preculture of E. coli DH11S infected with the phage was grown overnight. A sample of this preculture was used to inoculate a new 50 ml culture with a starting OD600nm of 0.050. This culture was grown up to an OD600nm of 0.20 to 0.25 with vigorous shaking at 37° C. The culture was then slowed down for 15 minutes in order to allow the regeneration of pili. M13K07 helper phage was added at an MOI of 20, and superinfection was allowed for 15 more minutes at 37° C. with slow agitation. IPTG (1 mM final concentration) was then added and the culture was grown for 5 hours with vigorous agitation.
A colony of K91kan containing the clone of interest (on a LB Tet plate) was added to 50 ml of LB supplemented with 20 μg/ml tetracycline and grown overnight at 37° C. with strong agitation.
Culture was centrifuged for 15 minutes at 4000RPM; 0.15 volume of PEG-NaCl solution was added to the supernatant for precipitating the phage and kept overnight at 4° C. Phage were collected by centrifugation, 45 minutes at 4000RPM. After being resuspended in TBS, phage were heated 15 minutes at 65° C. to kill remaining bacteria and to denature soluble proteins present in the sample. The solution was then centrifuged and the pellet was discarded. Phage in the supernatant were then precipitated again as indicated above. Phage were finally resuspended in 200 μl of TBS. Concentration of phage particules was determined by measuring the ΔOD at 269 nm-320 nm.
(§1) Phages were coated at 5×10^11 particules/ml on MaxiSorp multiwell plates. Coating was performed overnight at 4° C. with 100 μl/well. Plates were saturated with 5% (v/v) skimmed milk in TBS for 2 hours at 37° C. and washed 5 times with TBS-Tween20 0.05% (v/v). The mAbs were then incubated in the coated wells for 1 hour at 37° C., washed 5 times, and GAM-HRP conjugate (1500-fold dilution, Dako, Denmark) was added for 1 hour at 37° C. to detect the binding of the mAb to the phages. After 5 washings, the peroxidase activity was monitored by addition of the K-Blue® substrate (Neogen, Lexington, USA) at room temperature for 20 minutes. Reaction was stopped by addition of 25 μl of 2N H2SO4. Reading was performed at 450-630 nm. Each phage was coated in triplicate for testing with each mAb.

Row | Sequence | Phage ELISA: positive with at least one mAb
1 | AERSLWYYP [Peptide 83] | positive
2 | AITGVRARW (LOS peptide mimotope sequence) [Peptide 143] | positive
3 | ARWYPISQT (LOS peptide mimotope sequence) [Peptide 124] | positive
4 | CANSRPGGYLC (LOS peptide mimotope sequence) [Peptide 30] | positive
5 | CAPPGIAVRTC (not fully specified (bridges); cysteine pairing not given here) [Peptide 115] | positive
6 | CAPYSIFIGEC (not fully specified (bridges); cysteine pairing not given here) [Peptide 17] | positive
7 | CFARPFQGTWC (LOS peptide mimotope sequence) [Peptide 22] | positive
8 | CFGLIAFHPDC (LOS peptide mimotope sequence) [Peptide 27] | positive
9 | CHSVQPATRAC (LOS peptide mimotope sequence) [Peptide 131] | positive
10 | CIDAGSHGWLC (LOS peptide mimotope sequence) [Peptide 133] | positive
11 | CISEYAKGTTC (LOS peptide mimotope sequence) [Peptide 13] | positive
12 | CLAASADTAAC (LOS peptide mimotope sequence) [Peptide 139] | positive
13 | CLWRPIDPFLC (LOS peptide mimotope sequence) [Peptide 82] | positive
14 | CPKAPFSPFKC (LOS peptide mimotope sequence) [Peptide 132] | positive
15 | CPPPWSTHDC (LOS peptide mimotope sequence) [Peptide 141] | positive
16 | CPYTSWAREGC (LOS peptide mimotope sequence) [Peptide 140] | positive
17 | CQPIGPPYDRC (LOS peptide mimotope sequence) [Peptide 28] | positive
18 | CRFTYDPPFMC (LOS peptide mimotope sequence) [Peptide 51] | positive
19 | CRGLQGHIAYC (LOS peptide mimotope sequence) [Peptide 87] | positive
20 | CRPAFDPPYHC (LOS peptide mimotope sequence) [Peptide 54] | positive
21 | CSEPWSTSNC (LOS peptide mimotope sequence) [Peptide 142] | positive
22 | CSHAPPYDRVC [Peptide 14] | positive
23 | CSSLYYHGTAC (LOS peptide mimotope sequence) [Peptide 39] | positive

Row | Sequence | Phage ELISA: positive with at least one mAb
24 | CSSYSYVHDSC [Peptide 50] | positive
25 | CTANVYFGTYC [Peptide 29] | positive
26 | CTHYSFYGDIC (LOS peptide mimotope sequence) [Peptide 66] | positive
27 | CTPLPDGGILC (LOS peptide mimotope sequence) [Peptide 103] | positive
28 | CYPQLSHANPC (LOS peptide mimotope sequence) [Peptide 105] | positive
29 | DSAPAVKSS (LOS peptide mimotope sequence) [Peptide 85] | positive
30 | EKKHFNYGT (LOS peptide mimotope sequence) [Peptide 144] | positive
31 | EKKRFESNT (LOS peptide mimotope sequence) [Peptide 145] | positive
32 | EQGYCTVNIEQCAKYR (LOS peptide mimotope sequence) [Peptide 146] | positive
33 | GPWHGPSSS (LOS peptide mimotope sequence) [Peptide 93] | positive
34 | HGRTLWYTP (LOS peptide mimotope sequence) [Peptide 55] | positive
35 | LKWGDGSSA (LOS peptide mimotope sequence) [Peptide 104] | positive
36 | NSPTSCKWLCNEKF (LOS peptide mimotope sequence) [Peptide 148] | positive
37 | PGWYDAHPT (LOS peptide mimotope sequence) [Peptide 86] | positive
38 | PLWYDPAPP (LOS peptide mimotope sequence) [Peptide 47] | positive
39 | PRPHFGAPP [Peptide 61] | positive
40 | RGSEGSFAR (LOS peptide mimotope sequence) [Peptide 45] | positive
41 | SNWYENTPT (LOS peptide mimotope sequence) [Peptide 58] | positive
42 | SPADCDYTTLCAKPT (LOS peptide mimotope sequence) [Peptide 147] | positive
43 | SQWRSAAPT (LOS peptide mimotope sequence) [Peptide 53] | positive
44 | WYIAPRKTL (LOS peptide mimotope sequence) [Peptide 63] | positive
45 | WYSAPENAL (LOS peptide mimotope sequence) [Peptide 88] | positive
46 | WYTTPTRPV (LOS peptide mimotope sequence) [Peptide 75] | positive

Tested on: mAb H44/58
Experiment: Phage-ELISA with mAb H44/58
Type: binding, mouse
Conditions: peptide-on-phage
Method: as §1

Row | Sequence | Phage-ELISA result with mAb H44/58
47 | CSHAPPYDRVC [Peptide 14] | positive

Tested on: mAb H44/58
Experiment: SPOT peptide immunoblot, mAb H44/58
Type: binding, mouse
Conditions: Membrane 1 (linear peptide)
From the text: Another experiment for determining the best peptide candidates for immunisation trials is whether chemically synthesized peptides are recognized by at least one anti-MenB LOS mAb (and preferably not by irrelevant mAbs). This can be assessed on SPOT synthesized peptides (peptides synthesized directly on a cellulose membrane). This membrane can be tested with different mAbs by repetitive immunoblottings and chemiluminescent detection. Peptides may be synthesised with 3 residues originating from the pVIII protein sequence on each end of the peptide. Indeed, the primary structure of the peptides expressed in fusion with pVIII on the surface of the bacteriophage is as follows (x for any residue in the library):
For example linear peptides comprising peptide No. 61 from Table 2 (GEFPRPHFGAPPDPA) and peptide No. 83 (GEFAERSLWYYPDPA) were synthesised on one membrane, and cyclised peptides comprising peptide No. 50 from Table 2 (GEFCSSYSYVHDSCGDP), peptide 14 (GEFCSHAPPYDRVCGDP) and peptide 25 (GEFCRAPPYDTIMCGDP) were synthesised on another.
The protocol used to probe these membranes with mAbs was the one provided by Genosys, with some modifications, especially for the regeneration of membranes with cyclised peptides. […]

Row | Sequence | SPOT recognition by mAb 58 (H44/58)
48 | AERSLWYYP [Peptide 83] | recognized
